Reference: a melting point compilation (Tetko et al.; mined from patent text by program, amines drawn as free bases though some values may be those of a salt)
Residues, ends and D or L forms follow the SMILES beside them. *: point of attachment. Cbz = O=C(OCc1ccccc1)*

Row | Compound | melting point
1 | O=C(O)[C@H](CC1CC1)N1C(=O)NC(C(F)(F)F)(C(F)(F)F)C1=O | 123 to 125 °C
2 | CCOc1ccc(S(=O)(=O)Cl)cc1OC | 72 to 73 °C
3 | COc1cc2cc3c(=O)nc[nH]c3nc2cc1OC | 311 to 312 °C
4 | COc1ccc(CNc2n[nH]c3ncnc(Nc4cccc(Cl)c4)c23)cc1OC | 228 to 232 °C
5 | COC(=O)C(Cc1ccccc1)NC(=O)C(Cc1ccccc1)NC(=O)CNC(=O)OCc1ccccc1 (stereo not drawn) (Cbz-Gly-Phe-Phe-OMe; configuration not given here) | 122 to 124 °C
6 | c1ccc(-c2ccc3nncn3n2)nc1 | 191 to 192 °C
7 | CCOC(=O)CNc1ncccc1NC(=O)c1ccccc1Cl | 111 to 112 °C
8 | O=C(N1CCCC1)N1CCN(Cc2ccc3c(c2)-c2[nH]nc(-c4ccsc4)c2C3)CC1 | 214 to 216 °C
9 | O=C(NCC(F)(F)F)c1ccc(C2=NOC(c3cc(Cl)cc(Cl)c3)(C(F)(F)F)C2)cc1 (configuration not stated) | 94 to 96 °C
10 | O=C(CC1CCC2(CC1)OCCO2)N1CCN(c2ccccn2)CC1 | 113 to 116 °C
11 | CCn1nc(-c2sc(C(=O)NCc3ccccn3)nc2-c2ccccc2)ccc1=O | 169 to 170 °C
12 | CC(C)c1cc(O)nc(-c2ccc(Cl)cc2)n1 | 164 °C
13 | CN1C(=O)C(c2ccc(OC(F)F)cc2)(C2CCCCC2)N=C1N (configuration not stated) | 178 to 180 °C
14 | O=C(O)c1ccc(OC(F)(F)F)c(OC2CCCC2)c1 | 116 to 118 °C
15 | CC(=O)Nc1ccc2c(c1)CCC(CO)O2 (configuration not stated) | 156 °C
16 | O=c1ccc2c(-n3cncn3)nccc2[nH]1 | > 300 °C
17 | NC1=CC(=O)CC(c2ccsc2)C1 (configuration not stated) | 142 to 143 °C
18 | COC(=O)c1sccc1NC(=O)OC(C)(C)C | 88 to 89 °C
19 | COc1ccc(Oc2cc(Oc3ccc(OC)cc3)c(S(N)(=O)=O)cc2C(=O)O)cc1 | 246 to 248 °C
20 | COc1ccc2c3c(oc2c1)CC(C(=O)O)CC3 (configuration not stated) | 175 to 180 °C
21 | Cc1nc(-c2ccc3c(c2)c2cc(-c4ccc(Cl)cc4Cl)c(=O)n(C)c2n3C)co1 | 222 to 223 °C
22 | COc1ccc2cc([C@H](C)C(=O)NOCC(=O)NCCO[N+](=O)[O-])ccc2c1 | 40 to 44 °C
23 | CCN(CC)CCNC(=O)c1cc(F)c2cc(I)ccc2n1 | 58 to 60 °C
24 | C=CCCCOc1cc(OCCCCCCCC)ccc1C(=O)O | 67 to 68 °C
25 | COc1cc2ncc(C#N)c(Oc3cccc(Br)c3)c2cc1OC | 187 to 190 °C
26 | CC(=O)OC1CCN2C(=O)N(c3ccc(C#N)c4ccccc34)C(=O)C12 (configuration not stated) | 105 °C

Row | Compound | melting point
27 | CCOC(=O)c1ccc2ccccc2c1O | 48.5 to 49 °C
28 | Cn1cnnc1C(O)(c1ccc(I)cc1)c1ccc2c(c1)c(-c1cccc(Cl)c1)nc1nnnn12 (configuration not stated) | 228 °C
29 | CCN(CC)c1ccc2nc3c4ccccc4c(=Nc4ccc5ccccc5n4)cc-3oc2c1 | 234 to 236 °C
30 | O=C1c2cc(Cl)c(Cl)cc2CN2C(=NO)CCC12 (configuration not stated) | 245 to 246 °C
31 | CCOc1ccc(C(=O)Nc2ccccc2NC(=O)c2cccc(C(N)=NO)c2)cc1 | 180 to 182 °C
32 | O=C(CN1CCC(Cc2ccc(F)cc2)CC1)Nc1ccc2[nH]c(=O)oc2c1 | 228 to 231 °C
33 | Cc1cc(CCCCCOc2c(Cl)cc(C(=O)O)cc2Cl)on1 | 67 to 69 °C
34 | CCCOc1ccc(Cc2nn(-c3ccccc3Cl)c(=O)o2)cc1 | 68 °C
35 | COC(=O)[C@@H](Cc1ccccc1)NC(=O)OCc1cc2cc(-c3ccsc3)ccc2o1 | 105 to 106 °C
36 | O=C1Cn2c(cc3ccccc32)C(=O)N1CCCCN1CCN(c2ncccn2)CC1 | 237 to 239 °C
37 | Cc1cc(-n2cnc(CO)c2)ccc1C(C)C | 98 to 102 °C
38 | Cc1ccc(C#N)cc1C#N | 142 to 143 °C
39 | O=C(Cc1cccs1)Nc1cc(N2CC(c3ccccc3)OC2=O)ccn1 (configuration not stated) | 109 to 110 °C
40 | N#Cc1ncn2c1N(C(=O)CN1CCC(c3ccccc3)CC1)CC=C2c1cccc(C(F)(F)F)c1 | 174 to 175 °C
41 | Cc1ccc(C(=O)C2=C(O)C(=O)N(c3ccc(C(C)C)nn3)C2c2ccc(C(C)C)cc2)cc1 (configuration not stated) | 269 to 270 °C
42 | NC(=S)N1CCN(C=O)CC1 | 118 °C
43 | CC(C)(C)c1ccc(C(O)CCCCN2CCC(=C3c4ccccc4CCc4ccccc43)CC2)cc1 (configuration not stated) | 157 to 158 °C
44 | Cc1ccc(C2OC(=O)N(C(=O)NN3CCOCC3)C2C)cc1 (configuration not stated) | 124 to 125 °C
45 | O=C(Nc1ccccc1)OC1C=CC2COC1O2 (configuration not stated) | 107 to 109 °C
46 | Nc1cccc(C(=O)c2cccc(C(=O)c3cccc(N)c3)c2)c1 | 114 to 117 °C
47 | O=C(c1ccccc1Cl)c1cc(Cl)cc(Br)c1I | 86 to 87 °C
48 | C(=C\c1cc(/C=C/c2c[nH]c3ccccc23)n[nH]1)/c1cccc(OCc2ccccn2)c1 | 198 to 201 °C
49 | CCCCNC(=O)NS(=O)(=O)c1ccc(CCNC(=O)N2CCC(C)CC2=O)cc1 (configuration not stated) | 159 to 161 °C
50 | CCOC(=O)CNC(=O)/C=C/S(=O)(=O)c1ccccc1 | 156 to 157 °C
51 | O=C(NC1N=C(c2ccccc2F)c2ccccc2NC1=O)c1ccccc1 (racemic) | 243 to 244 °C
52 | O=C1CCc2ccc3ncoc3c21 | 188 to 190 °C

Row | Compound | melting point
53 | COC(=O)C(C)NC(=O)c1cc2cc(Cl)ccc2[nH]1 (single isomer, unassigned; (+)) | 199 to 201 °C
54 | NC(=O)c1sc2nccc(N3CCCC(O)C3)c2c1N (configuration not stated) | 208 to 211 °C
55 | Cc1nc(C(N)=O)c2n1-c1ccc(Cl)cc1C(c1ccccc1F)=NC2 | 300 to 305 °C
56 | O=c1c2cc(F)c(N3CCCC3)cc2n(CC2CC2)c(=O)n1O | 211 to 213 °C
57 | COc1cc(C#CCO)cc2c(O)c(C(=O)NCc3ccc(Cl)cc3)cnc12 | 207 to 208 °C
58 | CCCCOc1nccc2c1C(c1ccccc1C(F)(F)F)C(C(=O)OCC)=C(C)N2 (configuration not stated) | 174 to 175 °C
59 | Brc1cc(Br)c(CSCc2cc(Br)c(Br)cc2Br)cc1Br | 173 to 175 °C
60 | Cc1nc(C2(C)CC2(Cl)Cl)nn1-c1c(Cl)cc(C(F)(F)F)cc1Cl (configuration not stated) | 107 to 116 °C
61 | CNc1cccc(-c2csc(NC(=N)N)n2)c1 | 198 to 200 °C
62 | ClCc1cc2ccccc2c(-c2ccccc2)c1CCl | 93 °C
63 | COc1ccc(CSC2=NC(c3cccc([N+](=O)[O-])c3)C(C(=O)O)=C(C)N2)cc1 (configuration not stated) | 90 °C
64 | O=S(c1ccccc1)c1ncc(Cl)cn1 (configuration not stated) | 115 °C
65 | Cc1ccc(CN2C(=O)C3(COc4cc5c(cc43)OCO5)c3ccccc32)o1 (configuration not stated) | 117 to 119 °C
66 | O=Cc1ccc(CO)cc1 | 44.5 to 46 °C
67 | COCCCNC(=O)c1cc2c(nc(C)n2C)c2c1CCC1(Cc3ccccc3C1)N2 | 188 to 189 °C
68 | Oc1cccc2c1CCC=C2 | 67 to 68 °C
69 | O=C1Cc2ccc(SCc3ccccc3)cc2N1 | 132 to 134 °C
70 | CCCN1CCc2ccc(C(=O)CCC(=O)N3CCC(c4ccc(Cl)cc4)CC3)cc2CC1 | 151 to 152 °C
71 | CCOC(=O)c1cnn2c(-c3ccsc3)ccnc12 | 129 to 130 °C
72 | CCOc1ccc2c(c1)n(C1CCCCC1)c(=O)n2S(=O)(=O)c1ccc(N(C)C)cc1OC | 220 °C
73 | CCCCNC(=O)Cc1ccc(O)c(C2CCCCC2)c1 | 118 to 120 °C
74 | Cc1[nH]c(N)c(C)c1-c1ccnc(Nc2ccc(F)cc2)n1 | 227 to 231 °C
75 | CC(C)CC(S)C(=O)NC1(C(=O)NC(CC2(c3cccc4ccccc34)C=CC(c3ccccc3)=CC2)C(=O)O)CCCC1 (configuration not stated) | 187 to 189 °C
76 | CSc1sc(C(=O)N2CCN(C)CC2)c2c1C(=O)CC(C)(C)C2 | 123 to 125 °C
77 | O=C(O)C1=CC(CF)(CF)Oc2ccc(C(F)(F)C(F)(F)C(F)(F)F)cc21 | 162 to 163 °C
78 | O=C(O)CCOc1cccc2c1Cc1sc(S(=O)(=O)CCC(c3ccccc3)c3ccccc3)nc1-2 | 215 to 218 °C

Row | Compound | melting point
79 | COc1ccc(CC(=O)NOCc2ccccc2)cc1 | 98 to 99 °C
80 | CN1Cc2c(-c3noc(CCl)n3)ncn2-c2cccc(C(F)(F)F)c2C1=O | 180 to 184 °C
81 | Cc1c(C)c2c(c(C)c1NC(=O)CC(C)(C)C)C(O)(C1CCCCC1)C(C)(C)O2 (configuration not stated) | 170 to 171 °C
82 | COc1ccc2c(c1)oc(=O)c1c3ccc(OC)cc3sc21 | 220 to 221 °C
83 | Nc1ccc(CCN2CCN(c3nsc4ccccc34)CC2)cc1 | 154 °C
84 | Cc1cccc2c1NCC(=O)N2 | 168 to 171 °C
85 | CNc1nc(Cl)cc(Cl)n1 | 157 to 158 °C
86 | C[C@H](CSC(=O)c1ccccc1)C(=O)N1C(=O)N(C)C[C@H]1C(=O)OC(C)(C)C | 128 °C
87 | Cc1nnsc1NC(=O)Nc1ccc(-n2nc(C(F)(F)F)cc2C2CC2)cc1 | 124 to 128 °C
88 | Cc1ccc(S(=O)(=O)OC[C@H]2COc3ccc(Cl)cc3O2)cc1 | 90 to 91 °C
89 | Cc1ccc(N2C(=O)C(O)=C(C(=O)c3ccc(C(C)C)cc3)C2c2ccc(OC(F)(F)F)cc2)nn1 (configuration not stated) | 221 °C
90 | C=Cc1ccc([Si](C)(C)C)c(C(=O)NCC)c1Cl | 127 to 128 °C
91 | Cn1cnc(S(=O)(=O)NC(CN2CCOCC2)CN2CCOCC2)c1 | 191 to 192 °C
92 | COc1cc2c(=O)cc3c4ccccc4sn3c2c(OC)c1OC | 196 °C
93 | O=C(C=Cc1ccc(Cl)cc1Cl)c1ccccc1[N+](=O)[O-] | 130 to 132 °C
94 | CC1=CC(=O)CC(C)(C)C1(O)/C=C/C(C)=C\C=O (configuration not stated) | 111 to 113 °C
95 | CO[C@@]1(C)[C@@H](NC(=O)C(F)(F)F)CC(OC(=O)c2ccc([N+](=O)[O-])cc2)O[C@H]1C (some centres not stated) | 180 to 181 °C
96 | CN(C)c1cc(CO)ncn1 | 137 to 139 °C
97 | CNC(=CC#N)c1ccc2ccccc2c1 | 138 °C
98 | COc1cncnc1N1CCN(CCCc2c[nH]c3ccc([N+](=O)[O-])cc23)CC1 | 163 to 166 °C
99 | CSC(=NC(=O)c1cccc(Br)c1)NC(=O)c1ccccc1 | 145 to 146 °C
100 | C#CCn1nc(-c2cc(C(C)(C)C)c(O)c(C(C)(C)C)c2)c2cccnc21 | 172 to 174 °C
101 | Clc1ccc(OCc2ccc(Cl)s2)cc1 | 48 to 49 °C
102 | COc1cc(COc2cc(/C=C/c3cscn3)n(-c3ccccc3)n2)ccc1OCc1nc(-c2ccco2)oc1C | 154 to 155 °C
